According to PMC2386552, “Toward the Assessment of Food Toxicity for Celiac Patients: Characterization of Monoclonal Antibodies to a Main Immunogenic Gluten Peptide” (PLoS ONE, 2008):

Tests used:
[1] = test system: G12 moAb; assay: Indirect ELISA of C-LYTAG-peptide fusions (E. coli extracts) with moAb G12; format: binding; conditions: indirect ELISA of bacterial extracts containing the fusion peptides
Source text: (§1) To determine the epitope recognized by the G12 and A1 moAb within the 33-mer peptide, fusions of the C-LYTAG coding sequence of the pALEXb plasmid (Biomedal S.L., Sevilla, Spain) were constructed with coding sequences of hepta- and octapeptides comprising the complete sequence of the 33-mer peptide (Figure 3A). The resulting plasmids were introduced by transformation into the REG1 strain of Escherichia coli, allowing for over-expression of the encoded fusion proteins upon induction (Biomedal S.L., Sevilla, Spain). The over-expressed bacterial extracts were analyzed by indirect ELISA using the anti-33-mer A1 and G12 moAbs. Similarly, the anti-C-LYTAG 6B5L1 moAb (Biomedal, S.L., Sevilla, Spain) was used to establish that the designed protein was expressed intact in all cases. […]
(§2) A Maxisorp microtiter plate (Nunc, Roskilde, Denmark) was coated overnight at 4°C with 100 µL/well of the appropriate antigen (C-LYTAG-33-mer protein, gliadin, hordein, secalin, avenin, oryzein, zein or soluble protein extracts containing peptide fusions) serially diluted with 0.1 M of Na2CO3-NaHCO3 (pH 9.6). […] Absorbance at 450 nm was measured in the microplate reader UVM340 (Asys Hitech GmbH, Eugendorf, Austria).

[2] = test system: A1 moAb; assay: Indirect ELISA of C-LYTAG-peptide fusions (E. coli extracts) with moAb A1; format: binding; conditions: indirect ELISA of bacterial extracts containing the fusion peptides
Source text: as §1, §2

Row | Substance | signal with G12 moAb [1] | signal with A1 moAb [2]
1 | PQPQLPY [Pro63-Tyr69, C-LYTAG fusion peptide PQPQLPY expressed in E. coli] | positive signal | –
2 | QLPYPQP [Gln66-Pro72, C-LYTAG fusion peptide QLPYPQP expressed in E. coli] | – | positive signal
3 | QPQLPYP [Gln64-Pro70, C-LYTAG fusion peptide QPQLPYP expressed in E. coli] | positive signal | –
